One may read the Ki as a dissociation constant, usually derived from enzyme kinetics or from competition with a known ligand. A low value points to higher affinity. A word on the EC50: it is the concentration needed to bring the measured effect to its halfway point.

The species entered for test [1] is Mus musculus. Nature of the test: Long term depletion of Serotonin(5-HT) in Whole mouse Brain region of striatum at a high dose (300 nmol). The class given is functional.
The species entered for test [2] is Mus musculus. Nature of the test: Long term depletion of Dopamine(DA) in Whole mouse Brain region of cortex at a high dose (300 nmol). The class given is functional.
For test [3], the species on record is Mus musculus. As to the kind of experiment: Long term depletion of Serotonin(5-HT) in Whole mouse Brain region of thalamus at a high dose (300 nmol). Format: functional.
The target in test [4] is Sodium-dependent dopamine transporter (Rattus norvegicus, UniProt P23977). Nature of the test: Evaluated for the Competitive inhibition of uptake of dopamine transporter.
Sequence of Sodium-dependent dopamine transporter (P23977 whole entry): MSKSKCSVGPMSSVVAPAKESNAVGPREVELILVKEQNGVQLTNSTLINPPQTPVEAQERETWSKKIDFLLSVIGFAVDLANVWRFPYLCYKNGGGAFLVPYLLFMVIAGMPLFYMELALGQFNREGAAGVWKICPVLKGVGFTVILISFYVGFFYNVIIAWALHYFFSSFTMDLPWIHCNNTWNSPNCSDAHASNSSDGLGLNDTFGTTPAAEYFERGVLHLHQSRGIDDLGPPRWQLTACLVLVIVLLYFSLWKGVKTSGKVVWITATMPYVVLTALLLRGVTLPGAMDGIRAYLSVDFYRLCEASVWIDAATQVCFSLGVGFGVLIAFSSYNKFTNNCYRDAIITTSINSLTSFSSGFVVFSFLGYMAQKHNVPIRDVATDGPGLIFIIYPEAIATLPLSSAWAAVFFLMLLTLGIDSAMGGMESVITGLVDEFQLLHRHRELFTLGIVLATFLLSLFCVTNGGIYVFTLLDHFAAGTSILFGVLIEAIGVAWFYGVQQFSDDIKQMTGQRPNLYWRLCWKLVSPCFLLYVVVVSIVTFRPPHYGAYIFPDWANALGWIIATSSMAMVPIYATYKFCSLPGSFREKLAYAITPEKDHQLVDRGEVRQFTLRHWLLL
The species entered for test [5] is Mus musculus. Nature of the test: Noradrenergic effect was determined by depletion effect of Serotonin(5-HT) in mouse brain regions expressed as d50. Format: functional.
The species named for test [6] is Mus musculus. Nature of the test: Long term depletion of Dopamine(DA) in Whole mouse Brain at a high dose (300 nmol). Format: functional.
Test [7] addresses Norepinephrine transporter (Rattus norvegicus, UniProt Q9WTR4). As to the kind of experiment: Evaluated for the Competitive inhibition of uptake of norepinephrine.
Test [8] is filed under the species Mus musculus. As to the kind of experiment: Long term depletion of Serotonin(5-HT) in Whole mouse Brain region of medulla-pons at a high dose (300 nmol) with respect to control value(100+/-6). The class given is functional.
The species named for test [9] is Mus musculus. Nature of the test: Long term depletion of Dopamine(DA) in Whole mouse Brain at a low dose (60 nmol). Format: functional.
Test [10] is filed under the species Mus musculus. As to the kind of experiment: Long term depletion of Norepinephrine (NE) in Whole mouse Brain, region of midbrain at a high dose (300 nmol) with respect to control value(100+/-8). The class given is functional.
The species named for test [11] is Mus musculus. Nature of the test: Long term depletion of Norepinephrine (NE) in Whole mouse Brain region of hippocampus at a high dose (300 nmol) with respect to control value(100+/-10). The class given is functional.
Test [12] is filed under the species Mus musculus. Nature of the test: Noradrenergic effect was determined by depletion effect of Dopamine(DA) in mouse brain regions expressed as d50. Format: functional.
The species named for test [13] is Mus musculus. Nature of the test: Long term depletion of Norepinephrine (NE) in Whole mouse Brain at a high dose (300 nmol). The class given is functional.
The species entered for test [14] is Mus musculus. As to the kind of experiment: Noradrenergic effect was determined by depletion effect of Serotonin(5-HT) in mouse brain regions expressed as log d50. The class given is functional, organism-based.
The species entered for test [15] is Mus musculus. Nature of the test: Long term depletion of Serotonin(5-HT) in Whole mouse Brain, region of midbrain at a high dose (300 nmol). The class given is functional.
The species named for test [16] is Mus musculus. Nature of the test: Long term depletion of Norepinephrine (NE) in Whole mouse Brain region of cortex at a high dose (300 nmol) with respect to control value(100+/-6). The class given is functional.
Test [17] is filed under the species Mus musculus. Nature of the test: Long term depletion of Dopamine(DA) in Whole mouse Brain region of hypothalamus at a high dose (300 nmol) with respect to control value(100+/-14). The class given is functional.
The species entered for test [18] is Mus musculus. Nature of the test: Long term depletion of Serotonin(5-HT) in Whole mouse Brain at a high dose (300 nmol). The class given is functional.
Test [19] is filed under the species Mus musculus. As to the kind of experiment: Long term depletion of Dopamine(DA) in Whole mouse Brain region of medulla-pons at a high dose (300 nmol) with respect to control value(100+/-8). Format: functional.
The species named for test [20] is Rattus norvegicus. Nature of the test: Evaluated for the stimulation of synaptosomal release of Dopamine (release constant). The class given is functional.
The species named for test [21] is Mus musculus. Nature of the test: Long term depletion of Norepinephrine (NE) in Whole mouse Brain region of hypothalamus at a high dose (300 nmol). Format: functional.
For test [22], the species on record is Mus musculus. As to the kind of experiment: Long term depletion of Dopamine(DA) in Whole mouse Brain region of hippocampus at a high dose (300 nmol). Format: functional.
Test [23] is filed under the species Mus musculus. Nature of the test: Long term depletion of Norepinephrine (NE) in Whole mouse Brain region of medulla-pons at a high dose (300 nmol) with respect to control value(100+/-9). The class given is functional.
For test [24], the species on record is Mus musculus. As to the kind of experiment: Long term depletion of Serotonin(5-HT) in Whole mouse Brain region of hypothalamus at a high dose (300 nmol). Format: functional.
For test [25], the species on record is Mus musculus. Nature of the test: Long term depletion of Norepinephrine (NE) in Whole mouse Brain region of striatum at a high dose (300 nmol). The class given is functional.
The species entered for test [26] is Mus musculus. As to the kind of experiment: Noradrenergic effect was determined by depletion effect of Nerepinephrine (NE) in mouse brain regions expressed as log d50. The class given is functional, organism-based.
The species named for test [27] is Mus musculus. As to the kind of experiment: Long term depletion of Serotonin(5-HT) in Whole mouse Brain region of cerebellum at a high dose (300 nmol). The class given is functional.
For test [28], the species on record is Mus musculus. As to the kind of experiment: Long term depletion of Dopamine(DA) in Whole mouse Brain region of cerebellum at a high dose (300 nmol) with respect to control value(100+/-9). Format: functional.
Test [29] is filed under the species Mus musculus. As to the kind of experiment: Noradrenergic effect was determined by depletion effect of Dopamine(DA) in mouse brain regions expressed as log d50. The class given is functional, organism-based.
Test [30] is filed under the species Mus musculus. As to the kind of experiment: Long term depletion of Norepinephrine (NE) in Whole mouse Brain at a low dose (60 nmol). The class given is functional.
Test [31] is filed under the species Mus musculus. As to the kind of experiment: Long term depletion of Norepinephrine (NE) in Whole mouse Brain region of cerebellum at a high dose (300 nmol). The class given is functional.
Test [32] is filed under the species Mus musculus. Nature of the test: Long term depletion of Dopamine(DA) in Whole mouse Brain, region of midbrain at a high dose (300 nmol). The class given is functional.
The species entered for test [33] is Mus musculus. Nature of the test: Long term depletion of Dopamine(DA) in Whole mouse Brain region of striatum at a high dose (300 nmol). Format: functional.
Test [34] is filed under the species Mus musculus. Nature of the test: Long term depletion of Serotonin(5-HT) in Whole mouse Brain region of cortex at a high dose (300 nmol). The class given is functional.
Test [35] is filed under the species Mus musculus. As to the kind of experiment: Long term depletion of Serotonin(5-HT) in Whole mouse Brain region of hippocampus at a high dose (300 nmol). Format: functional.
The species named for test [36] is Mus musculus. As to the kind of experiment: Long term depletion of Norepinephrine (NE) in Whole mouse Brain region of thalamus at a high dose (300 nmol). Format: functional.
For test [37], the species on record is Rattus norvegicus. As to the kind of experiment: Evaluated for the stimulation of synaptosomal release of norepinephrine (release constant). Format: functional.
The species entered for test [38] is Mus musculus. Nature of the test: Noradrenergic effect was determined by depletion effect of Nerepinephrine (NE) in mouse brain regions expressed as d50. The class given is functional.
Test [39] is filed under the species Mus musculus. Nature of the test: Long term depletion of Dopamine(DA) in Whole mouse Brain region of thalamus at a high dose (300 nmol). The class given is functional.
The species entered for test [40] is Mus musculus. As to the kind of experiment: Long term depletion of Serotonin(5-HT) in Whole mouse Brain at a low dose (60 nmol). Format: functional.

Sequence of Norepinephrine transporter (Q9WTR4 whole entry): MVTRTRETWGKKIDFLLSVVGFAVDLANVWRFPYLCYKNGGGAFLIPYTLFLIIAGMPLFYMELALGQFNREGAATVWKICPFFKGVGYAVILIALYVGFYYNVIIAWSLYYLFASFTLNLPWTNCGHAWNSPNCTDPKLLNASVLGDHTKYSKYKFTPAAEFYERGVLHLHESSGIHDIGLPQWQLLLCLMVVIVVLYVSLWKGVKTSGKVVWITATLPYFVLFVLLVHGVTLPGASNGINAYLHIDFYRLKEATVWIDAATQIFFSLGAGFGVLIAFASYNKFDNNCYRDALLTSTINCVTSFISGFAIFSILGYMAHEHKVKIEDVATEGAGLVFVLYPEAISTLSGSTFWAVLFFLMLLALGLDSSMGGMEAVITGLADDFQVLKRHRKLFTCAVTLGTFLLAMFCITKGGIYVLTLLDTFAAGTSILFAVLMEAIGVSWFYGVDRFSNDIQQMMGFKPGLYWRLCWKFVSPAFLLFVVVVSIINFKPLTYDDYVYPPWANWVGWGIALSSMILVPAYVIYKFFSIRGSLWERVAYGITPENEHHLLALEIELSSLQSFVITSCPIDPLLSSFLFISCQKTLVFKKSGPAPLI

Regarding `NCCc1cc(O)c(O)cc1O` [OXIDOPAMINE], the Control in test [1] stood at 103%; in [2], 53%; in test [3], 90%; in [8] it was 109%; in test [9], 86%; in [10], 70%. Besides, the Control amounted to 5.3% in test [11]; 35% in [13]; 89% in test [15]; 9% in [16]; 116% in test [17]; 88% in test [18]. Also, the Control in [19] is recorded as 158%; in [21], 6.9%; in test [22] it was 25%; in [23], 47%; in [24], 89%; in test [25] it was 23%. For the same compound, the Control is recorded as 79% in test [27]; 72% in [28]; 40% in test [30]; 3.8% in test [31]; 88% in test [32]; 76% in test [33]. The Control in [34] came out at 82%; in test [35], 71%; in test [36], 18%; in test [39], 151%. Further, the Ki was 12 nM in test [4] and 51 nM in test [7]. Moreover, the d50 came out at 1930 nmol in test [5], 831 nmol in test [12] and 34.3 nmol in [38]. In [6], this compound registered a percent of control of 71%. In addition, the Log d50 was found to be 0.00328 µM in [14], 0.00153 µM in [26] and 0.00292 µM in test [29]. Moreover, the EC50 came out at 60000 nM in test [20] and 828000 nM in test [37].

Regarding `CC(N)Cc1cc(O)c(O)cc1N` (centres undefined), the Ki came to 9 nM in test [4] and 8 nM in test [7]. The percent of control in test [6] is listed as 77%. In addition, the Control was 96% in test [9]; 26% in [13]; 59% in test [18]; 32% in test [30]; 72% in test [40]. Further, the EC50 in test [20] was 7000 nM; in test [37], 21000 nM.

As for `NCCc1cc(O)c(N)cc1O`, the Ki in test [4] stood at 9 nM; in test [7], 5 nM. Also, in test [6], the percent of control came to 85%. Besides, the Control in test [9] was 100%; in test [13] it was 39%; in test [18], 72%; in test [30], 37%; in test [40] it was 73%. Also, the EC50 was 21000 nM in test [20] and 34000 nM in test [37].

As for `NCCc1cc(O)c(O)cc1N`, the Ki in test [4] worked out at 17 nM; in test [7], 11 nM. In addition, the percent of control in test [6] came to 79%. Moreover, the Control came to 90% in test [9]; 37% in [13]; 74% in [18]; 40% in test [30]; 78% in test [40]. The EC50 in test [20] turned out to be 3000 nM; in test [37], 23000 nM.

Values taken from ChEMBL document CHEMBL1128462, “In vivo and in vitro studies on the neurotoxic potential of 6-hydroxydopamine analogs” (J Med Chem, 1995).
